Drawing on PubChem BioAssay (NCI), this text covers GI50 and TGI for twelve compounds.

Among the test systems are HL-60(TB) leukemia; CAKI-1 renal; SF-268 CNS; NCI-H226 lung; EKVX NSCLC; OVCAR-5 ovarian; OVCAR-8 ovarian; SK-MEL-5 melanoma; NCI-H522 lung; LOX IMVI melanoma.
What all share (assay): NCI-60 cell line screen, 48 h

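Grown in 96-well plates, cells were treated for 48 hours with each compound at five concentrations. Insufficient inhibition: endpoint recorded as highest concentration tested. Abbreviation: GI50, concentration required for 50% inhibition of growth. TGI: total growth inhibition.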 A value given as a limit tells only on which side of the number the result lay.

Take `Cc1nnc2n1N=C(c1ccc(Cl)cc1Cl)/C(=C/c1ccc(-c3ccc([N+](=O)[O-])cc3Cl)o1)S2`: the GI50 in the assay with HL-60(TB) leukemia is 25.1 µM; in the assay with CAKI-1 renal it was 25.2 µM; with SF-268 CNS, 24.3 µM; in the assay with NCI-H226 lung it was 20.7 µM; with EKVX NSCLC, 61.2 µM; with OVCAR-5 ovarian, 16.5 µM. The GI50 with OVCAR-8 ovarian is 18.1 µM; in the assay on SK-MEL-5 melanoma it was 16.5 µM; in the assay with NCI-H522 lung, 20.9 µM; in the assay with LOX IMVI melanoma it was 12.3 µM. For the same compound, the TGI in the assay with HL-60(TB) leukemia is 62.9 µM; in the assay on CAKI-1 renal it was 84.8 µM; in the assay on SF-268 CNS, 66.7 µM; in the assay on NCI-H226 lung, 41.1 µM; with EKVX NSCLC, over 100 µM; in the assay on OVCAR-5 ovarian, 30.9 µM. Also, the TGI is 41.5 µM in the assay with OVCAR-8 ovarian, 32.6 µM in the assay with SK-MEL-5 melanoma, 44.9 µM in the assay with NCI-H522 lung and 27.4 µM in the assay on LOX IMVI melanoma.
Consider `COc1ccc(C(SC2C(O)C(CO)OC2n2ccc(=O)[nH]c2=O)(c2ccccc2)c2ccc(OC)cc2)cc1` (stereo not given), for which the TGI is 68.4 µM in the assay with HL-60(TB) leukemia; over 100 µM with CAKI-1 renal; 40.1 µM with SF-268 CNS; 31.9 µM in the assay on NCI-H226 lung; 41.8 µM with EKVX NSCLC; 39.7 µM with OVCAR-5 ovarian. The TGI in the assay on OVCAR-8 ovarian was 45.5 µM; with SK-MEL-5 melanoma, 29 µM; in the assay with NCI-H522 lung it was 31.9 µM; in the assay on LOX IMVI melanoma, 31.5 µM.
As to `O=C(O)c1ccccc1N=Cc1ccc(N(CCCl)CCCl)cc1`, the TGI with HL-60(TB) leukemia was over 100 µM; in the assay on CAKI-1 renal, 34.5 µM; in the assay with SF-268 CNS, over 100 µM; in the assay on EKVX NSCLC, over 100 µM; with OVCAR-5 ovarian, over 100 µM; with OVCAR-8 ovarian, over 100 µM. The TGI with SK-MEL-5 melanoma, in the assay on NCI-H522 lung and in the assay with LOX IMVI melanoma was over 100 µM throughout.
As for `NCc1cccc(O)c1O`, the TGI with HL-60(TB) leukemia, with CAKI-1 renal, in the assay on SF-268 CNS, with NCI-H226 lung, with EKVX NSCLC and with OVCAR-5 ovarian was over 100 µM throughout. Moreover, the TGI in the assay on OVCAR-8 ovarian, with SK-MEL-5 melanoma, in the assay on NCI-H522 lung and with LOX IMVI melanoma was over 100 µM in each case.
Regarding `COc1cc(C2C(Cl)C(=O)N2c2c(C)n(C)n(-c3ccccc3)c2=O)ccc1O` (stereo not given), the TGI is 64.1 µM in the assay with HL-60(TB) leukemia; over 100 µM with CAKI-1 renal; 75.5 µM in the assay with SF-268 CNS; 53.8 µM with NCI-H226 lung; 70.2 µM with EKVX NSCLC; 42.7 µM in the assay with OVCAR-5 ovarian. Besides, the TGI amounted to 43.9 µM in the assay with OVCAR-8 ovarian, 53.7 µM with SK-MEL-5 melanoma, 31 µM in the assay with NCI-H522 lung and 32.2 µM in the assay with LOX IMVI melanoma.
For the compound `O=C(CCN1CCN2c3ccccc3CCC2C1)c1ccc(F)cc1` (stereo not given), the TGI was 89.6 µM in the assay with HL-60(TB) leukemia; 44.4 µM in the assay with CAKI-1 renal; over 100 µM in the assay on SF-268 CNS; 98.6 µM in the assay on NCI-H226 lung; 58.5 µM in the assay on EKVX NSCLC; 62.2 µM with OVCAR-5 ovarian. Besides, the TGI is over 100 µM in the assay with OVCAR-8 ovarian, 49.9 µM in the assay on SK-MEL-5 melanoma, 35.7 µM with NCI-H522 lung and over 100 µM in the assay with LOX IMVI melanoma.
For the compound `COC(=O)C1C(=O)N(C)C(=O)N2CCCC12` (stereo not given), the TGI with HL-60(TB) leukemia, in the assay with CAKI-1 renal, with SF-268 CNS, in the assay with NCI-H226 lung, in the assay with EKVX NSCLC and with OVCAR-5 ovarian was over 100 µM each time. Further, the TGI in the assay on OVCAR-8 ovarian, in the assay on SK-MEL-5 melanoma, in the assay on NCI-H522 lung and in the assay on LOX IMVI melanoma was over 100 µM each time.
In the case of `Cc1cc2c([nH]c3ccccc32)c(O)c1-c1c(C)cc2c([nH]c3ccccc32)c1O`, the GI50 with HL-60(TB) leukemia was 32.9 µM; with CAKI-1 renal it was 14.7 µM; with OVCAR-5 ovarian, 15 µM; with SK-MEL-5 melanoma, 16.5 µM. The TGI with HL-60(TB) leukemia stood at 55 µM; with CAKI-1 renal, 27.9 µM; in the assay on SF-268 CNS, 27.4 µM; with NCI-H226 lung, 36.5 µM; with EKVX NSCLC it was 27.7 µM; in the assay on OVCAR-5 ovarian, 29 µM. Moreover, the TGI in the assay with OVCAR-8 ovarian amounted to 30.4 µM; in the assay on SK-MEL-5 melanoma, 30.1 µM; in the assay with NCI-H522 lung, 31.5 µM; with LOX IMVI melanoma it was 32.7 µM.
Regarding `Cc1ccccc1-c1nc2c(C(=O)NCCN(C)C)cccc2[nH]1`, the TGI in the assay on HL-60(TB) leukemia is over 74.6 µM; with CAKI-1 renal, over 100 µM; in the assay on SF-268 CNS, over 100 µM; with NCI-H226 lung, 48 µM; in the assay on EKVX NSCLC, over 100 µM; in the assay on OVCAR-5 ovarian, over 100 µM. The TGI is over 100 µM with OVCAR-8 ovarian, 53.7 µM in the assay with SK-MEL-5 melanoma, over 100 µM with NCI-H522 lung and over 100 µM in the assay on LOX IMVI melanoma.
As to `COc1ccc(-c2oc3cc(O)cc(O)c3c(=O)c2OC)cc1`, the TGI with HL-60(TB) leukemia was 38.4 µM; in the assay with CAKI-1 renal it was 60 µM; with SF-268 CNS, 78.2 µM; with EKVX NSCLC it was over 100 µM; in the assay on OVCAR-5 ovarian, over 100 µM; in the assay on OVCAR-8 ovarian, over 100 µM. Also, the TGI in the assay on SK-MEL-5 melanoma is 43.5 µM; in the assay on NCI-H522 lung, 9.7 µM; in the assay with LOX IMVI melanoma, over 100 µM.
For `CCOP(=O)(O)CN1CCNCCN(CP(=O)(O)OCC)CCNCC1`, the TGI in the assay with HL-60(TB) leukemia, in the assay with CAKI-1 renal, in the assay on NCI-H226 lung, in the assay with EKVX NSCLC, with OVCAR-5 ovarian and in the assay on OVCAR-8 ovarian was over 100 µM each time. For the same compound, the TGI in the assay on SK-MEL-5 melanoma, in the assay with NCI-H522 lung and in the assay on LOX IMVI melanoma was over 100 µM each time.
`O=c1oc(C(C(F)(F)F)C(F)(F)F)nc2ccccc12`: the TGI with HL-60(TB) leukemia, in the assay with CAKI-1 renal, in the assay with NCI-H226 lung, in the assay on EKVX NSCLC, in the assay with OVCAR-5 ovarian and with OVCAR-8 ovarian was over 100 µM each time. In addition, the TGI in the assay with SK-MEL-5 melanoma, in the assay on NCI-H522 lung and in the assay on LOX IMVI melanoma was over 100 µM throughout.
